Assays:
anaesthetized rat = assay: Influence on circulatory system (heart rate, blood pressure, max dP/dt, min dP/dt) in anaesthetized rat, continuous intravenous administration; assay type: in vivo; conditions: hydrochloride salt, i.v. continuous 0.1 mg/kg/minute for 20 minutes, difference vs 0 minute value; for change in the heart rate: FIG. 1; for change in blood pressure: FIG. 2; for change in left ventricular contraction function (max dP/dt): FIG. 3; for change in left ventricular relaxation function (min dP/dt): FIG. 4
Description: Measurement of heart rate, blood pressure, left ventricular contraction function (max dP/dt), and left ventricular relaxation function (min dP/dt)
Test method: In the present test, by using an anaesthetized rat, the influence of the hydrochloride salt of the first optical isomer component (A) and the second optical isomer component (B), each administered intravenously and continuously, on a circulatory system was determined. The test was performed with n=5 for each group. Each of the first component (A) or the second component (B) was continuously administered for 20 minutes at 0.1 mg/kg/minute, and then the measurement of heart rate, blood pressure, max dP/dt, and min dP/dt was performed. Each parameter was measured at 0 minute, 1 minute, 5 minutes, 10 minutes, 15 minutes, 20 minutes, 25 minutes, 30 minutes, 35 minutes, and 40 minutes after the administration, and the result was expressed in terms of a difference compared to the 0 minute value (previous value (i.e., control value)). The measurement value was expressed in terms of mean value±SD.
For the data of FIG. 1 to FIG. 4, determination of a significant difference was carried out by using t test.

anaesthetized beagle dog [1] = assay: Influence on ventricular effective refractory period in anaesthetized beagle dog; assay type: in vivo; conditions: for ventricular effective refractory period (% change rate vs control value 100%): anaesthetized beagle dog, i.v. rapid 5 minutes at 1 mg/kg/minute, measured immediately after administration, pacing interval 250 msec, FIG. 6; for extension of ventricular effective refractory period: beagle dog
Description: Influence on Ventricular Effective Refractory Period Test method: In the present test, by using an anaesthetized beagle dog, the influence of the first optical isomer component (A) and the second optical isomer component (B), each administered intravenously and rapidly, on ventricular effective refractory period was determined. The test was performed with n=5 for each group. The test compound was rapidly administered for 5 minutes at 1 mg/kg/minute. Measurement of ventricular effective refractory period was carried out immediately after the termination of the administration. The pacing interval was 250 msec. The measurement value was expressed in terms of mean value±SD. Test results: The test results are expressed in terms of % change rate when the previous value (i.e., control value) of ventricular effective refractory period is set at 100%.

anaesthetized beagle dog [2] = assay: Influence on atrial effective refractory period in anaesthetized beagle dog; assay type: in vivo; conditions: FIG. 5; for atrial effective refractory period (% change rate vs control value 100%): hydrochloride salt, i.v. 10 minutes at 0.1 mg/kg/minute then 20 minutes at 0.05 mg/kg/minute, pacing interval 250 msec
Description: Influence on Atrial Effective Refractory Period
Test method: In the present test, by using an anaesthetized beagle dog, the influence of hydrochloride salt of the first optical isomer component (A) and the second optical isomer component (B), each administered intravenously and continuously, on atrial effective refractory period was determined. The test was performed with n=5 for each group. The test compound was continuously administered for 10 minutes at 0.1 mg/kg/minute and then for 20 minutes at 0.05 mg/kg/minute. Measurement of atrial effective refractory period till 270 minutes after the termination of the administration was carried out. The pacing interval was 250 msec. The measurement value was expressed in terms of mean value±SD.
Test results: The test results are expressed in terms of % change rate when the previous value (i.e., control value) of atrial effective refractory period is set at 100%.
For the data of FIG. 5, determination of a significant difference was carried out by using t test.

Solubility in solvents = assay type: physicochemical
[3] = Stability of the compound at room temperature; assay type: physicochemical

Row | Structure (SMILES) | change in the heart rate (anaesthetized rat) | change in blood pressure (anaesthetized rat) | change in left ventricular contraction function (max dP/dt) (anaesthetized rat) | change in left ventricular relaxation function (min dP/dt) (anaesthetized rat) | ventricular effective refractory period (% change rate vs control value 100%) (anaesthetized beagle dog [1]; 1 mg/kg) | extension of ventricular effective refractory period (anaesthetized beagle dog [1]; amount of up to 8 mg/Kg) | atrial effective refractory period (% change rate vs control value 100%) (anaesthetized beagle dog [2]) | atrial effective refractory period extension compared with the other enantiomer (anaesthetized beagle dog [2]; same regimen) | solubility in water, ethanol, and dimethyl sulfoxide (Solubility in solvents; oxalate, crystal) | extension of ventricular effective refractory period (anaesthetized beagle dog [1]; 1 mg/kg, dose dependent) | stability to oxygen, humidity, acid, and alkali [3] | solubility in ethanol and dimethyl sulfoxide (DMSO) (Solubility in solvents; free form, amorphous solid) | skin irritating property (Skin irritating property)
1 | COc1ccc2c(c1)CN(C(=O)CCN1CCC(Cc3ccccc3)CC1)CC[S+]2[O-] (single isomer, unassigned) [first optical isomer component (A), 4-[3-(4-benzylpiperidin-1-yl)propionyl]-7-methoxy-2,3,4,5-tetrahydro-1,4-benzothiazepine-1-oxide] | mildly increased | mildly increased | enhanced | enhanced | not extended | does not show any extension | extended | longer extension |  |  |  |  | 
2 | COc1ccc2c(c1)CN(C(=O)CCN1CCC(Cc3ccccc3)CC1)CC[S+]2[O-] (stereo not shown) [oxalate of the compound [Ia], 4-[3-(4-benzylpiperidin-1-yl)propionyl]-7-methoxy-2,3,4,5-tetrahydro-1,4-benzothiazepine-1-oxide] |  |  |  |  |  |  |  |  | soluble |  |  |  | 
3 | COc1ccc2c(c1)CN(C(=O)CCN1CCC(Cc3ccccc3)CC1)CC[S+]2[O-] (single isomer, unassigned) [second optical isomer component (B), 4-[3-(4-benzylpiperidin-1-yl)propionyl]-7-methoxy-2,3,4,5-tetrahydro-1,4-benzothiazepine-1-oxide] | decreased | decreased | reduced | reduced | significantly extended |  | extended |  |  | can extend ventricular effective refractory period |  |  | 
4 | COc1ccc2c(c1)CN(C(=O)CCN1CCC(Cc3ccccc3)CC1)CC[S+]2[O-] (racemic) [[Ia], 4-[3-(4-benzylpiperidin-1-yl)propionyl]-7-methoxy-2,3,4,5-tetrahydro-1,4-benzothiazepine-1-oxide] |  |  |  |  |  |  |  |  |  |  | stable | easily dissolved | has a skin irritating property

From patent publication US10071996B2, “Optical isomer of 1,4-benzothiazepine-1-oxide derivative, and pharmaceutical composition prepared using same” (AETAS PHARMA CO., LTD., priority 2014, dated 2018)
